Test system: Plasmodium berghei
Assay: Luciferase/luciferin-expressing antifolate-resistant parasites were used to infect a culture of HepG2 cells that were pre-incubated with compounds. Infected hepatocytes emit light due to the luciferase reaction. Assay results are presented as the percent inhibition of light emission compared to control. […]
Assay type: functional
Settings: sporozoite; for IC90: read-out: LUCIFERASE INFECTION ASSAY - IC90
[1] = read-out: LUCIFERASE INFECTION ASSAY - IC50

Compound `O=C(Nc1ccccc1)c1ccc(C2(CNCc3cccnc3)CC2)cc1` has an IC50 (PBLUC_HILL_SLOPE 3.24, PBLUC_R_SQUARED 0.623, read-out: LUCIFERASE INFECTION ASSAY - IC50) of 0.323 µM and an IC90 of 0.637 µM.

Compound `O=C(Nc1cccc(Cl)c1)Nc1ccc2nc(-c3ccncc3)nn2c1` has an IC50 (PBLUC_HILL_SLOPE 15.9, PBLUC_R_SQUARED 0.357, read-out: LUCIFERASE INFECTION ASSAY - IC50) of 3.21 µM and an IC90 of 3.69 µM.

Compound `FC(F)(F)c1cc(-n2c(-c3cccnc3Oc3ccccc3)n[nH]c2=S)cc(C(F)(F)F)c1` has an IC50 (HEPG2TOX_HILL_SLOPE 12.4, HEPG2TOX_R_SQUARED 0.913, PBLUC_HILL_SLOPE 1.97, PBLUC_R_SQUARED 0.614, read-out: LUCIFERASE INFECTION ASSAY - IC50) of 1.53 µM and an IC90 of 4.66 µM.

`CC(C)c1noc(CN2CCN(c3ncnc4sc(-c5ccccc5)cc34)CC2)n1` showed an IC50 (HEPG2TOX_HILL_SLOPE 1.77, HEPG2TOX_R_SQUARED 0.986, PBLUC_HILL_SLOPE 2.11, PBLUC_R_SQUARED 0.835, read-out: LUCIFERASE INFECTION ASSAY - IC50) of 2.37 µM and an IC90 of 6.72 µM.

With `CC(C)[C@H](Nc1ccc(C(F)(F)F)cc1Cl)C(=O)Nc1ccc(C#N)cc1` the IC50 (HEPG2TOX_HILL_SLOPE 3.39, HEPG2TOX_R_SQUARED 0.849, PBLUC_HILL_SLOPE 25.1, 22.4, PBLUC_R_SQUARED 0.626, 0.774, read-out: LUCIFERASE INFECTION ASSAY - IC50) was 2.85 µM and the IC90 was 3.14 µM.

Compound `CN1CCc2nc3sc(C(=O)Nc4ccc(Cl)cc4F)c(N)c3cc2C1` has an IC50 [1] greater than 8.44 µM and an IC90 greater than 8.44 µM.

`O=C(CN1CCN(C(=O)c2ccccc2COc2ccccc2)CC1)Nc1ccccc1Cl` was tested, and the IC50 [1] was greater than 10 µM and the IC90 was greater than 10 µM.

For `CC1CN(S(=O)(=O)c2cc(Cl)c(Oc3ccc([N+](=O)[O-])cc3Cl)c(Cl)c2)CC(C)O1` (stereo not drawn), the IC50 [1] was greater than 6.66 µM and the IC90 was greater than 6.66 µM.

With `CCn1ncc2c(C(=O)Nc3nc(-c4ccc(OC)cc4OC)cs3)cc(-c3cccs3)nc21` the IC50 [1] was greater than 10 µM and the IC90 was greater than 10 µM.

`CCSc1nc(SCCCN(C)C)c2c3c(sc2n1)COC(C)(C)C3` gave an IC50 [1] greater than 8.3 µM and an IC90 greater than 8.3 µM.

With `Cc1c(C(=O)NCc2ccc(Cl)c(Cl)c2)sc(=O)n1Cc1ccc(S(=O)(=O)N(C)C)cc1` the IC50 (PBLUC_HILL_SLOPE 9.17, PBLUC_R_SQUARED 0.333, read-out: LUCIFERASE INFECTION ASSAY - IC50) was 5.25 µM and the IC90 was greater than 6.41 µM.

In the case of `O=C(Nc1cccc([N+](=O)[O-])c1)c1[nH]nc2ccccc12`, the IC50 (FFLUC_HILL_SLOPE 1.37, FFLUC_R_SQUARED 0.513, PBLUC_HILL_SLOPE 0.728, PBLUC_R_SQUARED 0.84, read-out: LUCIFERASE INFECTION ASSAY - IC50) is reported as 0.145 µM and the IC90 is reported as 2.96 µM.

With `O=C(CC(=O)Nc1ccc(Cl)cn1)Nc1ccc(Cl)c(Cl)c1` the IC50 (HEPG2TOX_HILL_SLOPE 5.65, HEPG2TOX_R_SQUARED 0.964, PBLUC_HILL_SLOPE 4.27, PBLUC_R_SQUARED 0.168, read-out: LUCIFERASE INFECTION ASSAY - IC50) was 4.81 µM and the IC90 was 8.05 µM.

For `CCOc1ccc(S(=O)(=O)N(Cc2nnc(-c3cccs3)o2)c2ccccc2OC)cc1`, the IC50 (HEPG2TOX_HILL_SLOPE 1.67, HEPG2TOX_R_SQUARED 0.357, PBLUC_HILL_SLOPE 2.18, PBLUC_R_SQUARED 0.1, read-out: LUCIFERASE INFECTION ASSAY - IC50) was 6.59 µM and the IC90 was greater than 10 µM.

Compound `COc1ccccc1-c1nc(CCl)cs1` has an IC50 [1] greater than 10 µM and an IC90 greater than 10 µM.

Compound `CN(Cc1cccc(Cl)c1Cl)C(C(=O)Nc1ccc(Cl)c(C(F)(F)F)c1)c1ccccc1` (stereo not drawn) has an IC50 (FFLUC_HILL_SLOPE 15.8, FFLUC_R_SQUARED 0.442, HEPG2TOX_HILL_SLOPE 1.06, HEPG2TOX_R_SQUARED 0.598, PBLUC_HILL_SLOPE 0.733, PBLUC_R_SQUARED 0.344, read-out: LUCIFERASE INFECTION ASSAY - IC50) of 7.46 µM and an IC90 greater than 10 µM.

`COc1ccc(C(C)(C)C)cc1NC(=O)c1ccc(Cl)c(S(=O)(=O)N2CCc3ccccc32)c1` gave an IC50 (FFLUC_HILL_SLOPE 21.6, FFLUC_R_SQUARED 0.0861, HEPG2TOX_HILL_SLOPE 0.0233, HEPG2TOX_R_SQUARED 0.0468, PBLUC_HILL_SLOPE 7.45, PBLUC_R_SQUARED 0.387, read-out: LUCIFERASE INFECTION ASSAY - IC50) of 8.38 µM and an IC90 greater than 10 µM.

In the case of `CCn1c2ccccc2c2cc(Nc3c(C#N)c(=O)n(C)c(=O)n3C)ccc21`, the IC50 (HEPG2TOX_HILL_SLOPE 1.91, HEPG2TOX_R_SQUARED 0.9, PBLUC_HILL_SLOPE 11.3, PBLUC_R_SQUARED 0.663, read-out: LUCIFERASE INFECTION ASSAY - IC50) is reported as 0.418 µM and the IC90 is reported as 0.508 µM.

With `O=c1c(Cl)c(Cl)cnn1-c1ccc(S(=O)(=O)NCCc2ccc3c(c2)OCCO3)cc1` the IC50 (PBLUC_HILL_SLOPE 21.5, PBLUC_R_SQUARED 0.289, read-out: LUCIFERASE INFECTION ASSAY - IC50) was 9.64 µM and the IC90 was greater than 10 µM.

Work on `C=CCSc1nnc(NC(=O)C2Cc3ccccc3CN2S(=O)(=O)c2ccccc2F)s1` (stereo not drawn) yielded an IC50 (FFLUC_HILL_SLOPE 1.45, FFLUC_R_SQUARED 0.33, PBLUC_HILL_SLOPE 5.35, PBLUC_R_SQUARED 0.362, read-out: LUCIFERASE INFECTION ASSAY - IC50) of 7.22 µM and an IC90 greater than 10 µM.

For `OCc1ccc(-c2cnc3ccc(NCc4ccc(F)cc4)nn23)cc1`, the IC50 (HEPG2TOX_HILL_SLOPE 0.86, HEPG2TOX_R_SQUARED 0.883, PBLUC_HILL_SLOPE 13, PBLUC_R_SQUARED 0.726, read-out: LUCIFERASE INFECTION ASSAY - IC50) was 1.05 µM and the IC90 was 1.24 µM.

`Cc1c(-c2nc3ncc(Br)cc3[nH]2)cc(C#N)n1C` showed an IC50 (FFLUC_HILL_SLOPE 1.06, FFLUC_R_SQUARED 0.775, HEPG2TOX_HILL_SLOPE 12.7, HEPG2TOX_R_SQUARED 0.745, PBLUC_HILL_SLOPE 2.08, PBLUC_R_SQUARED 0.626, read-out: LUCIFERASE INFECTION ASSAY - IC50) of 3.46 µM and an IC90 of 9.96 µM.

Work on `c1ccc(-c2cn3nc(N4CCN(Cc5cn6ccccc6n5)CC4)sc3n2)cc1` yielded an IC50 (FFLUC_HILL_SLOPE 1.63, FFLUC_R_SQUARED 0.146, PBLUC_HILL_SLOPE 1.5, PBLUC_R_SQUARED 0.683, read-out: LUCIFERASE INFECTION ASSAY - IC50) of 1.42 µM and an IC90 of 6.12 µM.

For `CCN1C(=O)N(Cc2cccc(OC)c2)C(=O)C12CCN(Cc1ccc3c(c1)Cc1ccccc1-3)CC2`, the IC50 (HEPG2TOX_HILL_SLOPE 11.9, HEPG2TOX_R_SQUARED 0.897, PBLUC_HILL_SLOPE 2.37, PBLUC_R_SQUARED 0.639, read-out: LUCIFERASE INFECTION ASSAY - IC50) was 3.29 µM and the IC90 was greater than 6.66 µM.

`CC[n+]1c(/C=C/c2ccc(SC)cc2)ccc2ccccc21` showed an IC50 (PBLUC_HILL_SLOPE 11.6, PBLUC_R_SQUARED 0.0577, read-out: LUCIFERASE INFECTION ASSAY - IC50) greater than 7.62 µM and an IC90 greater than 7.62 µM.

In the case of `CCc1ccc(-c2nnc(SC(C)C(=O)NC3CCCCC3)[nH]2)cc1` (stereo not drawn), the IC50 (HEPG2TOX_HILL_SLOPE 1.62, HEPG2TOX_R_SQUARED 0.795, read-out: LUCIFERASE INFECTION ASSAY - IC50) is reported as greater than 10 µM and the IC90 is reported as greater than 10 µM.

In the case of `CN(C)S(=O)(=O)c1ccc(N2CCCC2)c(C(=O)N2CCCC2)c1`, the IC50 [1] is reported as greater than 10 µM and the IC90 is reported as greater than 10 µM.

With `CCCc1cc(=O)n2nc(C)c(-c3ccc(Cl)cc3)c2[nH]1` the IC50 (PBLUC_HILL_SLOPE 10.5, PBLUC_R_SQUARED 0.468, read-out: LUCIFERASE INFECTION ASSAY - IC50) was 4.03 µM and the IC90 was 4.98 µM.

For `Cc1ccc(CCC2CCN(C(=O)CCCNC3=NS(=O)(=O)c4ccccc43)CC2)cc1`, the IC50 (HEPG2TOX_HILL_SLOPE 10.3, HEPG2TOX_R_SQUARED 0.945, PBLUC_HILL_SLOPE 12.1, PBLUC_R_SQUARED 0.567, read-out: LUCIFERASE INFECTION ASSAY - IC50) was 3.2 µM and the IC90 was 3.84 µM.

In the case of `CCN(C(S)=Nc1cccnc1)c1cccc2ccccc12`, the IC50 (HEPG2TOX_HILL_SLOPE 1.34, HEPG2TOX_R_SQUARED 0.711, PBLUC_HILL_SLOPE 4.21, PBLUC_R_SQUARED 0.184, read-out: LUCIFERASE INFECTION ASSAY - IC50) is reported as 7.6 µM and the IC90 is reported as greater than 10 µM.

`O=C(Nc1ccc(F)c(Cl)c1)c1ccccc1O` showed an IC50 [1] greater than 12.4 µM and an IC90 greater than 12.4 µM.

`N#C/C(=C\c1sc(N2CCCCC2)nc1-c1ccccc1)c1nnc2n1CCCCC2` was tested, and the IC50 [1] was greater than 10 µM and the IC90 was greater than 10 µM.

Work on `CC(C)c1ccc(NC2=NN=C(c3cccs3)CS2)cc1` yielded an IC50 (HEPG2TOX_HILL_SLOPE 7.09, HEPG2TOX_R_SQUARED 0.364, read-out: LUCIFERASE INFECTION ASSAY - IC50) greater than 10 µM and an IC90 greater than 10 µM.

`Cc1c(C(=O)Nc2ccc(N3CCOCC3)cc2N2CCOCC2)oc2ccc(F)cc12` showed an IC50 [1] greater than 10 µM and an IC90 greater than 10 µM.

Compound `CCn1c(=O)c(=O)[nH]c2cc(C(=O)Nc3ccc(Oc4ccccc4)cc3)ccc21` has an IC50 [1] greater than 10 µM and an IC90 greater than 10 µM.

In the case of `CN(CC(=O)Nc1c(Cl)cccc1Cl)C(=O)c1cccc(Oc2cccc(C(F)(F)F)c2)c1`, the IC50 (PBLUC_HILL_SLOPE 97.2, PBLUC_R_SQUARED 0.277, read-out: LUCIFERASE INFECTION ASSAY - IC50) is reported as 6.26 µM and the IC90 is reported as 6.4 µM.

`O=C1N=C(Nc2cccnc2)S/C1=C/c1ccc2ncccc2c1` showed an IC50 (HEPG2TOX_HILL_SLOPE 7.45, HEPG2TOX_R_SQUARED 0.476, PBLUC_HILL_SLOPE 2.82, PBLUC_R_SQUARED 0.798, read-out: LUCIFERASE INFECTION ASSAY - IC50) of 4.36 µM and an IC90 of 9.5 µM.

For `O=C(Nc1ccc(N2CCCC2)cn1)C1CC=CCC1` (stereo not drawn), the IC50 (FFLUC_HILL_SLOPE 1.03, FFLUC_R_SQUARED 0.671, HEPG2TOX_HILL_SLOPE 1.03, HEPG2TOX_R_SQUARED 0.932, PBLUC_HILL_SLOPE 1.27, PBLUC_R_SQUARED 0.726, read-out: LUCIFERASE INFECTION ASSAY - IC50) was 0.112 µM and the IC90 was 0.636 µM.

In the case of `CSc1sc(-c2ccnc(SCc3cccc(F)c3)n2)c2c1C(=O)CCC2`, the IC50 [1] is reported as greater than 7.92 µM and the IC90 is reported as greater than 7.92 µM.

Reference: ChEMBL document CHEMBL4483862, “Open-source discovery of chemical leads for next-generation chemoprotective antimalarials” (2018)
